According to US8318805B2, “Modulation of nitric oxide synthases by betaines” (priority 2004, dated 2012):
Where “and” joins values, the source holds several entries; their conditions need not be identical. Equal values may be shown once.

Assays:
[1] = test system: photochemically-induced brain ischemia; experiment: Photochemically-induced (rose Bengal) focal cerebral ischemia on rats; format: in vivo, rat; settings: for Red Ischemic Area, Excluding Blue Evan Penumbra / Weight of ischemic area: mean
Text: The aim of this study was to evaluate the activity of Betaine on thrombus formation in a rat model of photochemically-induced brain ischemia. The method (11) is based on local free radical release exerted by filtered light acting on rose Bengal previously injected in animals. Free radicals are known to induce endothelial damage, followed by platelet aggregation, thrombus formation and vascular occlusion. Briefly, an optic fiber in close contact shone denuded intact skulls (diameter of the illuminated circle 5.4 mm, luminance at the entrance of optic fiber was 5.6×10^6 Ix). After turning on the lamp, an infusion through the caudal vein of a 5 mg/mL (w/v) solution of rose Bengal in saline was started. Two mL of the solution were administered at a flow rate of 0.1 mL/min. After 20 min, at the end of the infusion, the lamp was turned off. [table] Evan's Blue solution (2% w/v) in saline was intravenously injected (1 mL/rat), 18-20 h after the ischemia induction in order to reveal the BBB breakdown. The rats were sacrificed 20 min after Evan's Blue injections and their brains removed. The infarcted area was visually verified, photographed by digital camera and then weighed.

nitric oxide = experiment: Nitric oxide production in healthy volunteers after single betaine ingestion (plasma, Griess reaction); format: in vivo, human; parameters: Conc. (nitric oxide) / Conc. (2) (nitric oxide): unit not given here
Description: Betaine is administrated at 75 mg/kg single oral dose at T0 to fastened healthy volunteers just after the basal blood sample. At T0 and T0+60 mn fresh blood samples are centrifuged to obtain plasma.
The samples are then tested for nitric oxide with the Griess reaction.

total nitric oxide = experiment: Nitric oxide plasma levels in healthy volunteers after repeated betaine ingestion; format: in vivo, human; parameters: Nitric oxide plasma levels Conc / Nitric oxide plasma levels Conc (×2): unit not given here; settings: for Nitric oxide plasma levels Conc / Nitric oxide plasma levels Conc (×2): individual donors
Description: (§1) After obtaining the baseline blood samples (sample a) from fastened normal healthy volunteers (n=10), Betaine was repeatedly administered in daily doses of 6 g. (2×3) for 1 week. After obtaining the 1 week blood sample from fastened volunteers (sample b) Betaine was again administered orally at a dose of 3 g. and a third blood sample drawn after one hour (sample c). […] The blood samples were centrifuged and the separated platelet poor plasma was then aliquoted and frozen at −70° C. for subsequent analysis for nitric oxide (NO), tissue factor pathway inhibitor (TFPI) activity levels and global clotting assays.
(§2) The samples are identified for each donor as number of donor (1, 2, etc) followed by the letter of the sample (a, b, c).

[2] = test system: fresh blood (Thromboelastograph); experiment: TEG parameters after betaine oral administration in healthy volunteers; format: in vivo, human; settings: evaluated with TEG
[3] = test system: Pulmonary Arterial Hypertension; experiment: Betaine added to Bosentan in patients with Pulmonary Arterial Hypertension (PAP, heart rate, 6MWT); format: in vivo, human; settings: after two weeks of anhydrous betaine 6 g/day bid added to Bosentan 125 mg bid
Description: Nine patients suffering from Pulmonary Arterial Hypertension and taking 125 mg Bosentan bid were randomly assigned to placebo (lactose monohydrate) 6 g/day bid (4 patients) or to anhydrous betaine 6 g/day bid (5 patients) during two weeks. They were assessed for haemodynamic variables and for 6 minutes walking test at inclusion and after the two weeks of medication with placebo or betaine. Pulmonary Artery Pressure (PAP) and Heart rate were non-invasively estimated by Doppler echocardiography method. 6MWT was performed on a treadmill.

[4] = test system: thrombus formation in mesenteric veinules or arterioles; experiment: Laser-induced thrombosis in rat mesenteric circulation; format: in vivo, Wistar rats; settings: for duration of embolisation / emboli / laser beams: oral 60 minutes before laser thrombosis
Text: Male Wistar rats (200-270 gram) were used for the experiments. […] After the medial laparotomy the intestinal loop was placed on the microscope table. Vascular lesions were produced by Argon laser […] This shot causes a well limited lesion of the vascular endothelium (only few cells are destroyed) exposing the thrombogenetic under-layer of the sub-endothelium. The contact of blood with this surface triggers the adherence of platelets via glycoproteins Ib & IIb IIIa. This adherence of platelets is followed by their activation: they form pseudopods and secrete the content of their granules. As a consequence thrombus formation occurs within few seconds. This platelet rich thrombus rapidly enlarges under influence of blood flow, embolises (i.e. is disrupted and carried by the flow from the thrombogenic area) before a new thrombus being formed again on the injured surface. […] Up to four shots can be fired if no emboli (platelet thrombus) are readily appearing. The number of successive laser beams and emboli formed are then recorded. In the presence of an antithrombotic compound a higher number of laser shots are necessary to induce thrombus formation. Similarly, a smaller number of emboli (platelet thrombi) are formed as compared with controls and the duration of the embolisation is also shorter. […] Similarly, a higher number of emboli (platelet thrombi) are formed as compared with controls and the duration of the embolisation is also longer. Betaine is orally administrated to animals at 50 mg/kg, 60 minutes before laser thrombosis.

[5] = test system: fresh blood (Thromboelastograph); experiment: TEG parameters after betaine oral administration in healthy volunteers; format: in vivo, human; settings: for K / MA / R / α Angle: T0 + 60 mn after 75 mg/kg single oral dose
Description: Betaine is administrated at 75 mg/kg single oral dose at T0 to fastened healthy volunteers just after the basal blood sample. At T0 and T0+60 mn the fresh blood samples are immediately evaluated in the Thromboelastograph (TEG®—Haemoscope Corp.—Illinois).
R parameter corresponds to […] initial fibrin formation, and is functionally related to plasma clotting factors and clot formation.

[6] = test system: Tissue Factor Pathway Inhibitor (TFPI); experiment: TFPI concentration plasma levels in healthy volunteers after repeated betaine ingestion; format: in vivo, human; settings: for TFPI CONCENTRATION: individual donors
Description: as §1, §2

[7] = test system: blood (rate of initial fibrin formation); experiment: TEG at each blood draw during repeated betaine ingestion; format: in vivo, human; settings: compared to the baseline values; 6 g daily for 1 week, then 3 g
Description: as §1

[8] = test system: Tissue Factor Pathway Inhibitor (TFPI); experiment: TFPI activity plasma levels in healthy volunteers after repeated betaine ingestion; format: in vivo, human; settings: for TFPI ACTIVITY: individual donors
Description: as §1, §2

[9] = test system: whole blood platelet aggregation; experiment: Whole blood aggregation, ADP 5 μM; format: in vivo, Wistar rats; settings: oral
Description: Blood is sampled by intracardiac puncture on trisodium citrate solution (3, 8% sodium citrate/blood 1/9 vv) using the 2 syringes technique.
ADP 5 μM in final concentration is used as agonist. Amplitudes are expressed in ohms (Ω) and velocities in ohm/min (Ω/min)

[10] = ASA 50 mg/kg iv 30 min before ischemia induction, n = 5
[11] = ASA 200 mg/kg iv 30 min before ischemia induction, n = 10
[12] = plasma, Post = T0+60 mn after 75 mg/kg single oral dose, individual volunteers
[13] = betaine oral administration, healthy volunteers (n=10)
[14] = sample b: fasted, after 6 g daily (2×3) for 1 week
[15] = sample c: one hour after a further 3 g oral dose following 1 week of 6 g daily
[16] = Betaine 10 mg/kg sc 1 h before ischemia induction, n = 10
[17] = Betaine 10 mg/kg sc at the end of ischemia induction, n = 10, (*) P<0,05
[18] = healthy volunteers, 60 minutes after oral administration
[19] = mean T0 + 60 mn versus mean basal value
[20] = Celebrex 10 mg + saline, individual rats
[21] = Celebrex 10 mg + saline, mean of 6 rats
[22] = NS 398 5 mg + saline, individual rats
[23] = NS 398 5 mg + saline, mean of 6 rats

CC(=O)Oc1ccccc1C(=O)O [ASA, Acetylsalicylic acid, reference compound]
Red Ischemic Area, Excluding Blue Evan Penumbra [1, 10]: 0.322 cm^2 | Weight of ischemic area [1, 10]: 35.0 mg | Red Ischemic Area, Excluding Blue Evan Penumbra [1, 11]: 0.29 cm^2 | Weight of ischemic area [1, 11]: 40 mg

C[N+](C)(C)CC(=O)O [Betaine, glycine betaine]
Nitric oxide levels (nitric oxide; oral administration, all tested volunteers): markedly increased | Conc. (2) (nitric oxide) (nitric oxide; [12]): 41.81 and 24.14 and 65.53 and 114.21 and 70.19 and 72.51 | Conc. (nitric oxide) (nitric oxide; [12]): 20.91 and 12.07 and 32.77 and 57.42 and 35.09 and 36.26 | Nitric oxide levels (total nitric oxide; [13]): increased | Nitric oxide plasma levels Conc (total nitric oxide; [14]): 29.11 and 28.89 and 9.11 and 26.28 and 20.2 and 22.59 and 13.24 and 21.5 and 24.11 and 14.11 | Nitric oxide plasma levels Conc (×2) (total nitric oxide; [14]): 58.217 and 57.783 and 18.217 and 52.565 and 40.391 and 45.174 and 26.478 and 43 and 48.217 and 28.217 | Nitric oxide plasma levels Conc (total nitric oxide; [15]): 14.54 and 41.07 and 39.96 and 27.8 and 26.72 and 22.8 and 25.85 and 11.93 and 31.28 and 27.15 | Nitric oxide plasma levels Conc (×2) (total nitric oxide; [15]): 29.087 and 82.13 and 79.957 and 55.609 and 53.435 and 45.609 and 51.696 and 23.87 and 62.565 and 54.304 | R prolongation compared with Lovenox in post orthopaedic surgery patients [2]: as potent as Lovenox® anticoagulation | Heart rate 2 ([3]; individual patients): 84 beats/minute and 67 beats/minute and 74 beats/minute and 69 beats/minute and 72 beats/minute | Week 2 ECO 2 PAP ([3]; individual patients): 71 mmHg and 60 mmHg and 80 mmHg and 65 mmHg and 58 mmHg | 6MWT 2 ([3]; mean of 5 patients): 413 m | Heart rate 2 ([3]; mean of 5 patients): 73.2 beats/minute | Week 2 ECO 2 PAP ([3]; mean of 5 patients): 66.8 mmHg | 6MWT 2 ([3]; treadmill, individual patients): 380 m and 504 m and 360 m and 411 m and 410 m | Red Ischemic Area, Excluding Blue Evan Penumbra [1, 16]: 0.335 cm^2 | Weight of ischemic area [1, 16]: 36 mg | Red Ischemic Area, Excluding Blue Evan Penumbra [1, 17]: 0.28 cm^2 | Weight of ischemic area [1, 17]: 25 mg | Efficacy in the stroke model compared with Aspirin ([1]; rat, Betaine 10 mg/kg sc): better efficacy than Aspirin | Crossing of encephalic barrier ([1]; rat, after being present in blood stream): ability to cross encephalic barrier | Number of laser beams, number of emboli and duration of embolisation relative to saline control values ([4]; Betaine co-administration with selective COX 2 inhibitors): normalise | Protection from selective COX 2 inhibitors thrombogenicity ([4]; rats, Betaine co-administered orally at 50 mg/kg): clearly protects animals from selective COX 2 inhibitors thrombogenicity | K ([5]; individual volunteers): 2.5 mn and 1.8 mn and 2.0 mn and 1.3 mn (2×) and 2.7 mn | MA ([5]; individual volunteers): 52.6 mm and 65.0 mm and 56.8 mm and 65.8 mm and 61.9 mm and 70.1 mm | R ([5]; individual volunteers): 5.8 mn and 7.3 mn and 7.4 mn and 4.8 mn and 8.4 mn and 6.3 mn | α Angle ([5]; individual volunteers): 57.5 ° and 65.5 ° and 64.2 ° and 71.9 ° and 66.9 ° and 70.4 ° | K ([5]; mean of 6 volunteers): 1.9 mn | MA ([5]; mean of 6 volunteers): 62.0 mm | R ([5]; mean of 6 volunteers): 6.8 mn | α Angle ([5]; mean of 6 volunteers): 66.1 ° | Blood coagulation (R parameter) [5, 18]: significantly prolonged | Other TEG parameters [5, 18]: remained stable | Δ K [5, 19]: −8% | Δ MA [5, 19]: +3% | Δ R [5, 19]: +45% | Δ α Angle [5, 19]: +1% | TFPI concentration plasma levels [6, 13]: increased | TFPI CONCENTRATION [6, 14]: 59.45 ng/mL and 66.23 ng/mL and 84.35 ng/mL and 47.14 ng/mL and 64.57 ng/mL and 76.40 ng/mL and 93.34 ng/mL and 47.28 ng/mL and 70.31 ng/mL and 89.81 ng/mL | TFPI CONCENTRATION [6, 15]: 86.98 ng/mL and 70.38 ng/mL and 76.12 ng/mL and 70.52 ng/mL and 82.62 ng/mL and 89.19 ng/mL and 87.74 ng/mL and 58.62 ng/mL and 63.25 ng/mL and 83.38 ng/mL | TEG reaction time, i.e. rate of initial fibrin formation [7]: marked prolongation | TFPI activity plasma levels [8, 13]: increased | TFPI ACTIVITY [8, 14]: 3.30 U/ml and 181.61 ng/ml and 2.74 U/ml and 150.83 ng/ml and 2.66 U/ml and 146.34 ng/ml and 2.30 U/ml and 126.36 ng/ml and 2.17 U/ml and 119.46 ng/ml and 4.66 U/ml and 256.55 ng/ml and 3.39 U/ml and 186.37 ng/ml and 2.99 U/ml and 164.44 ng/ml and 3.52 U/ml and 193.76 ng/ml and 4.43 U/ml and 243.59 ng/ml | TFPI ACTIVITY [8, 15]: 3.60 U/ml and 197.99 ng/ml and 2.19 U/ml and 120.49 ng/ml and 1.71 U/ml and 94.20 ng/ml and 2.74 U/ml and 150.83 ng/ml and 2.98 U/ml and 163.73 ng/ml and 4.53 U/ml and 248.91 ng/ml and 3.65 U/ml and 200.57 ng/ml and 3.23 U/ml and 177.73 ng/ml and 3.45 U/ml and 189.62 ng/ml and 4.03 U/ml and 221.52 ng/ml

Cc1ccc(-c2cc(C(F)(F)F)nn2-c2ccc(S(N)(=O)=O)cc2)cc1 [Celebrex ®]
duration of embolisation [4, 20]: 4 (2×) and 5 (3×) and 9 | emboli [4, 20]: 9 and 8 and 11 (2×) and 17 and 12 | laser beams [4, 20]: 2 (3×) and 1 (3×) | duration of embolisation [4, 21]: 5.33 | emboli [4, 21]: 11.33 | laser beams [4, 21]: 1.5 | amplitude [9, 20]: 13 Ω (3×) and 12 Ω and 14 Ω and 21 Ω | velocity [9, 20]: 8 Ω/min (2×) and 7 Ω/min (2×) and 13 Ω/min and 9 Ω/min | amplitude [9, 21]: 14.33 Ω | velocity [9, 21]: 8.67 Ω/min

CS(=O)(=O)Nc1ccc([N+](=O)[O-])cc1OC1CCCCC1 [NS 398]
duration of embolisation [4, 22]: 5 (2×) and 4 (2×) and 3 and 2 | emboli [4, 22]: 11 and 9 (2×) and 10 and 7 and 8 | laser beams [4, 22]: 2 (5×) and 1 | duration of embolisation [4, 23]: 3 | emboli [4, 23]: 9 | laser beams [4, 23]: 1.83 | amplitude [9, 22]: 9 Ω (2×) and 10 Ω and 2 Ω and 12 Ω and 6 Ω | velocity [9, 22]: 9 Ω/min and 7 Ω/min (4×) and 5 Ω/min | amplitude [9, 23]: 8 Ω | velocity [9, 23]: 7 Ω/min
